Some test systems named below: HS 578T breast; UACC-257 melanoma; HT29 colon; HCT-15 colon; SN12C renal; COLO 205 colon; HL-60(TB) leukemia; SNB-19 CNS; A549 NSCLC; HOP-62 NSCLC; SW-620 colon; NCI-H226 lung; UO-31 renal; BT-549 breast; HCC-2998 colon; IGROV1 ovarian; MCF7 breast; SR leukemia.
Assay in all cases: NCI-60 cell line screen, 48 h

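All cell lines were grown in 96-well plates and treated with compound for 48 hours. TGI is the concentration that stops growth completely.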

On to `Cc1nc2c(cc1C(=O)N/N=C/c1ccc([N+](=O)[O-])cc1)c(=O)n(C)c(=O)n2C`, for which the TGI is 86.6 µM in the assay with HS 578T breast; over 100 µM in the assay on UACC-257 melanoma; over 100 µM in the assay with HT29 colon; over 100 µM in the assay with HCT-15 colon; over 100 µM in the assay with SN12C renal; over 100 µM in the assay on COLO 205 colon. The TGI in the assay with HL-60(TB) leukemia was over 100 µM; with SNB-19 CNS, 56.7 µM; in the assay with A549 NSCLC, over 100 µM; in the assay with HOP-62 NSCLC it was 35.8 µM; in the assay with SW-620 colon, over 100 µM; in the assay on NCI-H226 lung, over 100 µM. In addition, the TGI with UO-31 renal, in the assay with BT-549 breast, with HCC-2998 colon, in the assay on IGROV1 ovarian and in the assay on MCF7 breast was over 100 µM throughout.

Take `Cc1cc(C)nc(SCC(=O)OC2CC(C)CCC2C(C)C)n1` (centres undefined): the TGI was over 100 µM in the assay with HS 578T breast; 41.7 µM with UACC-257 melanoma; 39.9 µM with HT29 colon; 43.8 µM with HCT-15 colon; 37.2 µM in the assay with SN12C renal; 31 µM in the assay with COLO 205 colon. Moreover, the TGI in the assay on HL-60(TB) leukemia turned out to be 44.2 µM; with SNB-19 CNS it was 45.9 µM; with A549 NSCLC it was 63.4 µM; with HOP-62 NSCLC, 27.2 µM; with SW-620 colon it was 52.3 µM; with UO-31 renal, 33.7 µM. Besides, the TGI amounted to 79.9 µM in the assay with BT-549 breast, 65.6 µM with IGROV1 ovarian and 50.7 µM in the assay with MCF7 breast.

Regarding `C[n+]1c2ccccc2n2c3ccccc3c(NCCc3ccccn3)c(C#N)c21`, the TGI with HS 578T breast was 12.1 µM; in the assay on UACC-257 melanoma, 16.6 µM; with HT29 colon it was over 100 µM; in the assay with HCT-15 colon, 17.4 µM; in the assay on COLO 205 colon it was 5.88 µM; with HL-60(TB) leukemia, 7.9 µM. Further, the TGI with SNB-19 CNS was over 26.8 µM; in the assay with A549 NSCLC, 50.1 µM; in the assay with HOP-62 NSCLC, 11.8 µM; in the assay with SW-620 colon, 3.24 µM; in the assay with NCI-H226 lung, 16.6 µM; in the assay on UO-31 renal, 6.51 µM. Also, the TGI was over 23.3 µM in the assay on BT-549 breast, 1.24 µM in the assay with HCC-2998 colon and 2.97 µM in the assay on MCF7 breast.

Take `COc1cc2c(cc1OC)CN1CCCc3cc(OC)c(OC)cc3C1C2` (centres undefined): the TGI in the assay on HS 578T breast is over 100 µM; in the assay on UACC-257 melanoma, over 100 µM; in the assay on HT29 colon, 61.7 µM; in the assay with HCT-15 colon, over 100 µM; in the assay on SN12C renal, over 100 µM; with COLO 205 colon, over 100 µM. Besides, the TGI with SNB-19 CNS was over 100 µM; with A549 NSCLC, over 100 µM; in the assay with HOP-62 NSCLC, over 100 µM; in the assay on SW-620 colon, over 100 µM; in the assay on NCI-H226 lung, 96.1 µM; with UO-31 renal it was over 100 µM. Also, the TGI with BT-549 breast is over 100 µM; in the assay with HCC-2998 colon it was over 100 µM; with IGROV1 ovarian, over 100 µM; with MCF7 breast it was 95.2 µM.

Take `COC(=O)[C@@]1(Cc2ccc(O)cc2)C[C@@H]2Cc3ccccc3N2N1`: the TGI in the assay on HS 578T breast is over 100 µM; in the assay with UACC-257 melanoma, 71.7 µM; with HT29 colon, over 100 µM; with HCT-15 colon, over 100 µM; in the assay on SR leukemia, over 100 µM; in the assay with SN12C renal it was over 100 µM. Besides, the TGI in the assay with COLO 205 colon, with SNB-19 CNS, with A549 NSCLC, with HOP-62 NSCLC, in the assay on SW-620 colon and in the assay on NCI-H226 lung was over 100 µM in each case. The TGI in the assay with UO-31 renal, in the assay on BT-549 breast, in the assay with IGROV1 ovarian and in the assay with MCF7 breast was over 100 µM throughout.

For the compound `N#CCCN(CCC#N)c1ccc(C(N=Nc2ccccc2)=Nc2ccc(Cl)cc2)cc1`, the TGI in the assay on HS 578T breast, in the assay on UACC-257 melanoma, in the assay with HT29 colon, with HCT-15 colon, in the assay with SN12C renal and in the assay with COLO 205 colon was over 100 µM throughout. The TGI in the assay with SNB-19 CNS, with A549 NSCLC, in the assay on HOP-62 NSCLC, in the assay on SW-620 colon, in the assay with NCI-H226 lung and in the assay with UO-31 renal was over 100 µM throughout. Besides, the TGI with BT-549 breast, in the assay on HCC-2998 colon, with IGROV1 ovarian and in the assay with MCF7 breast was over 100 µM throughout.

As for `CO/C(=C/C(=O)C(Cl)(Cl)Cl)CC/C(=C\C(=O)C(Cl)(Cl)Cl)OC`, the TGI in the assay on HS 578T breast was over 100 µM; with UACC-257 melanoma, 43.8 µM; in the assay with HT29 colon it was 85.3 µM; in the assay on HCT-15 colon it was 73.1 µM; in the assay on SR leukemia it was 51.7 µM; with SN12C renal, 54.5 µM. In addition, the TGI in the assay on COLO 205 colon is over 100 µM; with HL-60(TB) leukemia it was 80.5 µM; with SNB-19 CNS, over 100 µM; in the assay with A549 NSCLC it was over 100 µM; in the assay with HOP-62 NSCLC, 49.5 µM; with SW-620 colon it was over 100 µM. In addition, the TGI with UO-31 renal is 43.4 µM; in the assay on BT-549 breast, 83.2 µM; in the assay with IGROV1 ovarian, 35.8 µM; in the assay on MCF7 breast it was 79.8 µM.

For `Cc1cc(C)c2c(c1)C1=NCCN1C2(O)c1ccc(Cl)cc1` (centres undefined), the TGI stood at 32 µM in the assay on HS 578T breast; 31.9 µM in the assay with UACC-257 melanoma; 31.5 µM with HT29 colon; 32.4 µM in the assay with HCT-15 colon; 62 µM with SR leukemia; 30.3 µM in the assay on SN12C renal. Besides, the TGI was 29 µM in the assay on COLO 205 colon; 49.4 µM in the assay on HL-60(TB) leukemia; 31.7 µM with SNB-19 CNS; 35.5 µM in the assay with A549 NSCLC; 29.3 µM in the assay on HOP-62 NSCLC; 29.2 µM in the assay on SW-620 colon. Moreover, the TGI in the assay with UO-31 renal stood at 26.9 µM; with BT-549 breast, 26.4 µM; in the assay with IGROV1 ovarian, 27.4 µM; with MCF7 breast it was 34.3 µM.

Consider `O=C(O)CC1NC(/C(=C/c2ccccc2O)NC(=O)c2ccccc2)OC1=O` (centres undefined), for which the TGI with HS 578T breast, with UACC-257 melanoma, in the assay with HT29 colon, in the assay on HCT-15 colon, in the assay on SN12C renal and in the assay on COLO 205 colon was over 100 µM in each case. In addition, the TGI in the assay with HL-60(TB) leukemia is over 100 µM; with SNB-19 CNS, 49.5 µM; in the assay with A549 NSCLC, over 100 µM; in the assay on HOP-62 NSCLC, 29.5 µM; in the assay with SW-620 colon, over 100 µM; with NCI-H226 lung, over 79.5 µM. Moreover, the TGI with UO-31 renal is over 63.6 µM; in the assay with BT-549 breast it was 52 µM; in the assay with HCC-2998 colon, over 100 µM; with IGROV1 ovarian, over 70.9 µM; in the assay with MCF7 breast it was over 100 µM.

The values are drawn from PubChem BioAssay (NCI).
